# Entries after “also recorded” stand apart in the source; their conditions may differ. Where two headings read alike, the source gives them in different places.
# Key:
# [1] = system: TynA-FeaR system; assay: microbe, parasite or virus in culture; details: for EC50: read-out: KA (half maximal constant); for Fmax / Fmin / n (Hill coefficient): wild-type TynA and FeaR, pCX008, pHJY022
# Protocol: (§1) To develop sensors for aromatic amines, the TynA-FeaR system was first characterized in EcN. A sensor plasmid was constructed, which consisted of constitutively expressed TynA and FeaR from E. coli MG1655, and a reporter plasmid, which consisted of GFP under the control of PtynA (see e.g., FIG. 3B). […] Next, the sensitivity and selectivity to different ligands was characterized.
# For fluorescence-based quantification, single colonies were transferred to 5 mL LB medium (VWR, Radnor, Pa., USA) in 14 mL round bottom tubes and incubated overnight at 250 rpm and 37° C. Unless otherwise specified, experimental cultures were prepared by diluting overnight cultures 100× into 0.6 mL M9 minimal medium supplemented with 1 mM MgSO4, […]), and 2% w/v glycerol as well as the respective ligands (DA, PEA, Tyra, and Trypta) in 2 mL 96-deep well plates. Cultures were grown for 24 h at 37° C. and 250 rpm. After 5 h and 24 h of incubation, samples were obtained from the cultures for flow cytometry analysis.
# (§2) Flow cytometry was performed as previously described. Culture samples were collected and diluted to a final OD600 of ˜0.005-0.01 in 200 mL filtered phosphate-buffered saline supplemented with 2 mg/ml kanamycin in 96-well assay microplates (U-bottom, REF-353910 from BD Biosciences, San Jose, Calif., USA). The fluorescence of the samples was measured using a Millipore Guava EasyCyte High Throughput flow cytometer with a 488 nm excitation laser and 512/18 nm emission filter. Cytometry data was gated by forward and side scatter. FlowJo (TreeStar Inc.) was used to obtain the arithmetic mean of the fluorescence distribution. The averages of the arithmetic means were calculated from three biological replicates. The average fluorescence of the non-fluorescent wild-type cell was subtracted from each sample to obtain the final fluorescence (au) values (Equation 2). To obtain the relative fluorescence in FIG. 6A-FIG. 6C, fluorescence values for each variant were normalized to the fluorescence of the wild-type sensor using Equation 3.
# The Hill equation (Equations 4 and 5) was used to fit lines to the fluorescence data. The model was fit to the experimentally collected data by minimizing the root mean square error (RMSE; Equation 6).
# [2] = system: FeaR (TynA inactivated); details: 0.5 mM, FIG. 3C
# Protocol: as §1
# For fluorescence-based quantification, single colonies were transferred to 5 mL LB medium (VWR, Radnor, Pa., USA) in 14 mL round bottom tubes and incubated overnight at 250 rpm and 37° C. […]
# as §2, with “Culture samples were collected and diluted to a final OD600 of ˜0.005-0.01 in 200 mL filtered phosphate-buffered saline supplemented with 2 mg/ml kanamycin in 96-well assay microplates (U-bottom, REF-353910 from BD Biosciences, San Jose, Calif., USA).” left out, “Cytometry data was gated by forward and side scatter.” left out
# [3] = system: G415H TynA with wild-type FeaR; assay type: cell-based, E. coli MG1655; details: G415H
# Protocol: (§3) Flow cytometry was performed as previously described. […] Cytometry data was gated by forward and side scatter.
# [4] = system: G494S TynA and A81S FeaR; assay type: cell-based, E. coli MG1655; details: G494S TynA and A81S FeaR; 5 h and 24 h; FIG. 23A-B
# Protocol: as §3
# [5] = system: G494S TynA with A81T FeaR; assay type: cell-based, E. coli MG1655; details: G494S*
# Protocol: as §3
# [6] = system: G494S TynA with wild-type FeaR; assay type: cell-based, E. coli MG1655; details: G494S TynA, wild-type FeaR; 5 h and 24 h; FIG. 18A-B
# Protocol: as §3
# [7] = system: wild-type TynA with A81T FeaR; assay type: cell-based, E. coli MG1655; details: wild-type TynA; 1 mM, 24 h; FIG. 21
# Protocol: as §3
# [8] = system: wild-type TynA with L108T FeaR; assay type: cell-based, E. coli MG1655; details: L108T FeaR; 24 h; FIG. 28B
# Protocol: as §3
# [9] = system: wild-type TynA with M83Q FeaR; assay type: cell-based, E. coli MG1655; details: M83Q FeaR; 24 h; FIG. 28A
# Protocol: as §3
# [10] = system: wild-type TynA with W110C FeaR; assay type: cell-based, E. coli MG1655; details: W110C FeaR; 24 h; FIG. 28D
# Protocol: as §3
# [11] = system: wild-type TynA with W110S FeaR; assay type: cell-based, E. coli MG1655; details: W110S FeaR; 24 h; FIG. 28C
# Protocol: as §3
# [12] = system: wild-type TynA and A81L FeaR; assay: microbe, parasite or virus in culture; assay type: cell-based, E. coli MG1655; details: A81L FeaR
# Protocol: as §3
# [13] = system: wild-type TynA with A81P FeaR; assay: microbe, parasite or virus in culture; assay type: cell-based, E. coli MG1655; details: A81P FeaR; 5 h and 24 h; FIG. 25A-B
# Protocol: as §3
# [14] = system: TynA-KP with FeaR-KA I109N; assay: GFP fluorescence from PtynA-MG with TynA-KP and FeaR-KA I109N; assay type: cell-based, Klebsiella aerogenes
# Source text: FIG. 32. […] Sensor system with PtynA-MG, TynA-KP and FeaR-KA was chosen as the wild type (WT) for further directed evolution. TynA-KP was employed to reduce the possible interference from DA during evolution processes. Values and error bars are the average and standard deviation of biological triplicate, respectively.
# FIG. 33A-FIG. 33B. […] The expression of PtynA-MG was regulated by the TynA-KP with FeaR-KA I109N mutant. Points represent experimental data while lines represent the fitted curves. […] Values and error bars are the average and standard deviation of biological triplicate, respectively.
compound,measurement,setting,value
"NCCc1ccc(O)c(O)c1 [Dopamine, dopamine]",fold increase in GFP expression,"[1]; 0.5 mM, in the presence of TynA, FIG. 3C",410 fold
same,EC50,"[1]; Escherichia coli, 5 h",28 µM
same,EC50,"[1]; Escherichia coli, 24 h",68 µM
same,fold induction at 1250 µM,"[1]; Escherichia coli, read-out: fold induction of the reporter",~900
same,Fmax,"[1]; FIG. 3D, 24 h induction",881
same,Fmin,"[1]; FIG. 3D, 24 h induction",0.1
same,n (Hill coefficient),"[1]; FIG. 3D, 24 h induction",3
same,Fmax,"[1]; FIG. 14, 5 h induction",258
same,Fmin,"[1]; FIG. 14, 5 h induction",4.4
same,n (Hill coefficient),"[1]; FIG. 14, 5 h induction",1.5
same,induction of PtynA,[2],eliminated
same,response,"[3]; 5 h, FIG. 17B",lack of response
same,response,"[3]; 24 h, FIG. 4D, listed as DA",lack of response; also recorded: minimal response
same,response,[4],lack of response
same,response,"[5]; 5 h, FIG. 17A",lack of response
same,response,"[5]; 24 h, FIG. 4C",lack of response
same,response,[6],lack of response
same,effect of the A81T FeaR mutation on the response of the sensor,[7],significantly reduced
same,response,[8],lack of response
same,response,[9],lack of response
same,response,[10],lack of response
same,response,[11],lack of response
same,response,"[12]; 5 h, FIG. 24",lack of response
same,response,"[12]; 24 h, FIG. 5C",lack of response
same,response,[13],lack of response
same,response,"[14]; FeaR-KA I109N, 5 h and 24 h, FIG. 33A-B",lack of response
same,induction of fluorescence,"[14]; I109N variant, 0.5 mM, 24 h, FIG. 32",not
